Results from patent US4132731A, “Novel iodized isophthalamic acid compounds” (Schering Aktiengesellschaft, priority 1976, dated 1979).

How the values were obtained:
[1] = general compatibility (LD50 i.v.) in rats; conditions: rat, in vivo, iv
[2] = test system: rats; assay: neural compatibility: intracerebral compatibility / Valzelli value (ED50) in rats; conditions: aqueous meglumine salt solutions, confidence range p 0.05
[3] = rats, aqueous meglumine salt solutions

| SMILES | LD50 [1] | Valzelli Value (ED50) and Confidence Range [2] | LD50 [1, 3] |
| --- | --- | --- | --- |
| CC(=O)Nc1c(I)c(C(=O)O)c(I)c(C(=O)NCCO)c1I [Compound 1, ioxithalamic acid, reference compound] | 15200 mg/kg | 12.3 (10.3-14.4) mg. I/kg. |  |
| COCC(=O)Nc1c(I)c(C(=O)O)c(I)c(C(=O)NC(C)(C)CCO)c1I [Compound 6, N-(3-hydroxy-1,1-dimethylpropyl)-2,4,6-triiodo-5-methoxyacetamidoisophthalamic acid] |  | 67.2 (58.7-84.8) mg. I/kg. | 18400 mg/kg |
| COCC(=O)Nc1c(I)c(C(=O)O)c(I)c(C(=O)NCCO)c1I [Compound 5, N-(2-Hydroxyethyl)-2,4,6-triiodo-5-methoxyacetamidoisophthalamic Acid] |  | 44.9 (36.7-51,8) mg. I/kg. | > 18600 mg/kg |
| COCC(=O)Nc1c(I)c(C(=O)O)c(I)c(C(=O)NCC(C)O)c1I (centres unmarked) [Compound 3, N-(2-Hydroxypropyl)-2,4,6-triiodo-5-methoxyacetamidoisophthalamic Acid] |  | 44.6 (35.5-52.2) mg. I/kg. | 19000 mg/kg |
| CC(=O)Nc1c(I)c(C(=O)O)c(I)c(C(=O)NCC(C)O)c1I (centres unmarked) [Compound 7] | 18200 mg/kg | 50.7 (44.3-56.6) mg. I/kg. |  |
| COCC(=O)Nc1c(I)c(C(=O)O)c(I)c(C(=O)NC(C)(C)CO)c1I [Compound 2, N-(2-hydroxy-1,1-dimethylethyl)-2,4,6-triiodo-5-methoxyacetamidoisophthalamic acid] |  | 71.4 (61.4-99.9) mg. I/kg. | 20000 mg/kg |
| COCC(=O)Nc1c(I)c(C(=O)O)c(I)c(C(=O)NCCCO)c1I [Compound 4, N-(3-Hydroxypropyl)-2,4,6-triiodo-5-methoxyacetamidoisophthalamic Acid] |  | 43.1 (32.6-50.9) mg. I/kg. | 16300 mg/kg |
